# How the values were obtained:
# Sprague Dawley rats = experiment: Feed intake in Sprague Dawley rats; type: in vivo, rat; conditions: 25 mg/kg i.p., cumulative feed intake vs vehicle control
# Excerpt: In Vivo Efficacy Studies: Feed Intake in Sprague Dawley Rats:
# Sprague Dawley rats of 6-8 week age were be used for this experiment they were be kept for acclimatization in reversed light/dark cycle for 15 days. Animals will have free access to a standard chow diet and water during acclimatization period. After 15 days reversed light/dark cycle acclimatization animals were trained for fasting induced feed intake for 5 days till they show consistent feed intake. Grouping was done based on the monitored feed intake the training days. On treatment day each group of animals were dosed with test compound or vehicle by appropriate routes of administration (orally or intraperitoneally). Exactly 30 min. after treatment, measured amount of standard chow diet was provided and recorded as 0-min feed offered. Then subsequently 2, 4, 6 and 24 hour after 0-min, feed intake was measured and the cumulative feed intakes were calculated. The change in cumulative feed intake as compare to vehicle treated control at each time point was calculated for test compound and results were provided in table 2
# C57/BL6 mice = experiment: Oral glucose tolerance test (OGTT) in C57/BL6 mice; type: in vivo, mouse; conditions: 30 mg/kg oral single dose; glucose load 3 gm/kg; serum glucose AUC
# Experimental: Oral Glucose Tolerance Tests (OGTT) in C57/BL6 Mice:
# C57/BL6 mice of 6-8 week age were used for this experiment. Animals were grouped based on non-fasting serum glucose levels and kept on fasting for overnight (day before OGTT). On the experiment day, each animal received a single dose of vehicle/test compounds (30 mg/kg) were administered orally, 30 min post dosing animals were bled for basal glucose level estimation and at same time glucose load (3 gm/kg) will be administered per orally. Blood was collected at time points corresponding to 20, 40, 60 and 120 min after glucose load administration. Serum was separated for determination of glucose levels and change in area under curve for glucose was calculated and provided in table 3 as % reduction in AUC.
# human GPR 119 receptor = biological target: T1, human GPR 119 receptor (Homo sapiens, UniProt Q8TDV5); experiment: cAMP assay in stable cell line expressing recombinant human GPR 119 receptor; type: cell-based; conditions: intracellular cAMP, recombinant human GPR 119 cell line
# T1 construct: expressed in transfected cells
# T1 sequence (Q8TDV5 1-335): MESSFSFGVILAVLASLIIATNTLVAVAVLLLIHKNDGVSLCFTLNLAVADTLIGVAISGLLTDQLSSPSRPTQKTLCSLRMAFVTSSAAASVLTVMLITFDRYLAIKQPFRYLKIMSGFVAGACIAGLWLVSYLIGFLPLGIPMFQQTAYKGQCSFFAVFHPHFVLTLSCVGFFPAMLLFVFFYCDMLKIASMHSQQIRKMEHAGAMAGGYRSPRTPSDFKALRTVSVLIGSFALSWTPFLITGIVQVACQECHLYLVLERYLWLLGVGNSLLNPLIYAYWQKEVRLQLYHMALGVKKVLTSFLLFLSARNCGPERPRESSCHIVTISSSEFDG
# Excerpt: A stable cell line expressing recombinant human GPR 119 receptor was established and used to investigate the efficacy of the compounds of the invention based on the intracellular levels of cyclic AMP (cAMP) using commercially available cAMP kits. Compounds of the invention produced a concentration dependent increase in cAMP level and EC50 values of representative compounds were provided in table 1 and table 2 respectively.
SMILES,% reduction in food in take 2 hour (Sprague Dawley rats) [%],% reduction in food in take 4 hour (Sprague Dawley rats) [%],% reduction in food in take 6 hour (Sprague Dawley rats) [%],% reduction in food in take 24 hour (Sprague Dawley rats) [%],% reduction in AUC at 30 mg/kg (C57/BL6 mice) [%],% activity at 1 μM (human GPR 119 receptor) [%],EC50 (human GPR 119 receptor) [nM]
"CC(=NOc1ncnc(N2CCC(c3nc(C(C)C)no3)CC2)c1C)c1ccc(S(C)(=O)=O)cc1F [Example 6, 1-(2-fluoro-4-(methylsulfonyl)phenyl)ethanone O-6-(4-(3-isopropyl-1,2,4-oxadiazol-5-yl)piperidin-1-yl)-5-methylpyrimidin-4-yl oxime]",57,52,33.3,15.1,20,49.55,
"CC(=NOc1ncnc(N2CCC(c3nc(C(C)C)no3)CC2)c1[N+](=O)[O-])c1ccc(F)cc1 [Example 9, 1-(4-fluorophenyl)ethanone O-6-(4-(3-isopropyl-1,2,4-oxadiazol-5-yl)piperidin-1-yl)-5-nitropyrimidin-4-yl oxime]",41,31,23,12,,104.77,746
"CC(=NOc1ncnc(N2CCC(c3nc(C(C)C)no3)CC2)c1[N+](=O)[O-])c1cccnc1 [Example 10, 1-(pyridin-3-yl)ethanone O-6-(4-(3-isopropyl-1,2,4-oxadiazol-5-yl)piperidin-1-yl)-5-nitropyrimidin-4-yl oxime]",38,31,25.4,10,,31.37,
"CC(=NOc1ncnc(N2CCC(c3nc(C(C)C)no3)CC2)c1[N+](=O)[O-])c1ccc(S(C)(=O)=O)cc1 [Example 11, 1-(4-(methylsulfonyl)phenyl)ethanone O-6-(4-(3-isopropyl-1,2,4-oxadiazol-5-yl)piperidin-1-yl)-5-nitropyrimidin-4-yl oxime]",76.2,43.1,36,17,,103.98,
"CC(=NOc1ncnc(N2CCC(c3nc(C(C)C)no3)CC2)c1[N+](=O)[O-])c1ccc(S(C)(=O)=O)cc1F [Example 14, 1-(2-fluoro-4-(methylsulfonyl)phenyl)ethanone O-6-(4-(3-isopropyl-1,2,4-oxadiazol-5-yl)piperidin-1-yl)-5-nitropyrimidin-4-yl oxime]",53,48,37,16,20,89.97,
"CC(=NOc1ncnc(N2CCC(c3nc(C(C)C)no3)CC2)c1C)c1ccc(C(F)(F)F)cc1 [Example 15, 1-(4-(trifluoromethyl)phenyl)ethanone O-6-(4-(3-isopropyl-1,2,4-oxadiazol-5-yl)piperidin-1-yl)-5-methylpyrimidin-4-yl oxime]",41,27,24,11,23.4,79.21,
"CC(=NOc1ncnc(N2CCC(c3nc(C(C)C)no3)CC2)c1C)c1ccc(OC(F)(F)F)cc1 [Example 16, 1-(4-(trifluoromethoxy)phenyl)ethanone O-6-(4-(3-isopropyl-1,2,4-oxadiazol-5-yl)piperidin-1-yl)-5-methylpyrimidin-4-yl oxime]",43,25,16,4.5,,78.54,
"CC(=NOc1ncnc(N2CCC(c3nc(C(C)C)no3)CC2)c1C)c1ccc2ccccc2c1 [Example 22, 1-(naphthalen-2-yl)ethanone O-6-(4-(3-isopropyl-1,2,4-oxadiazol-5-yl)piperidin-1-yl)-5-methylpyrimidin-4-yl oxime]",30,43,44,14,,18.5,
"CC(=NOc1ncnc(N2CCC(c3nc(C(C)C)no3)CC2)c1[N+](=O)[O-])c1ccc2ccccc2c1 [Example 23, 1-(naphthalen-2-yl)ethanone O-6-(4-(3-isopropyl-1,2,4-oxadiazol-5-yl)piperidin-1-yl)-5-nitropyrimidin-4-yl oxime]",38,26,26,4,,17.7,
